The results in this text go back to US20070259889A1, “Protein Binding Compounds” (priority 2003, published 2007).

Molecules are shown by their SMILES.

The target in the data set is bovine serum albumin (BSA) (Bos taurus, UniProt P02769). The data set is described as follows: Protein binding studies (albumin binding, centrifugal ultrafiltration, HPLC). It is filed as in vitro ADME. To be noted: didanosine and didanosine prodrugs; method of Example 7: 4% BSA in water, 30 minutes at 37° C., 10,000 MWCO centrifugal filter, phosphate buffer pH 7.4 reference. The protocol:
The compound (approximately 5 mg) was dissolved in DMSO (approximately 1.8 ml). A small sample of this DMSO solution (approximately 5 mg) was added to a solution of bovine serum albumin (BSA) in water (approximately 1.8 ml, 4% BSA). Another sample of the DMSO solution (approximately 5 mg) was added to a solution of phosphate buffer pH 7.4 (isotonic) (approximately 1.8 ml).
Both samples were shaken in a water bath for 30 minutes at 37° C.
The devices were centrifugated at 4000 rpm for 1 hour at 37° C.
The amount of drug in the filtrates was determined by HPLC(C-18 column, phosphate buffer pH 2.2/acetonitrile, UV detection).

bovine serum albumin (BSA), sequence (P02769 25-607): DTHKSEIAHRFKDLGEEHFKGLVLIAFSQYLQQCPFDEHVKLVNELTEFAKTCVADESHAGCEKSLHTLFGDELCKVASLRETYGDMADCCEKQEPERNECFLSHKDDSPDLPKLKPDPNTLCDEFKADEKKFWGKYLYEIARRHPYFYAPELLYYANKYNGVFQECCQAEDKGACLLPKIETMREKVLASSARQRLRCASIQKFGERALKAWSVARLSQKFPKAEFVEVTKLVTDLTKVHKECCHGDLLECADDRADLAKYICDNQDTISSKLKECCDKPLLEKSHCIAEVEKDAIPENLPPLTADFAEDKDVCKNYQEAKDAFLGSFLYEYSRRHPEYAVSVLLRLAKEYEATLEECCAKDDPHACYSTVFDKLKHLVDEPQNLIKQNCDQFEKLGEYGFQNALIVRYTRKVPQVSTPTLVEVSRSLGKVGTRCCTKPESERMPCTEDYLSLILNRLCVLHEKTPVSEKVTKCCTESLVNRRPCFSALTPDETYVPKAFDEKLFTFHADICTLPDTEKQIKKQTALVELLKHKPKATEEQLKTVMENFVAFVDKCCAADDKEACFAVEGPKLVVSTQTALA

Take `O=C(O)CCCCCCCCCCC(=O)OCC1CCC(n2cnc3c(=O)[nH]cnc32)O1` (stereo not shown) [2′,3′-dideoxy-5′-hydrogen dodecanedioate inosine]: the “% Albumin binding” value turned out to be 94%. On to `O=C(O)CCCCCCCCCCCCCCC(=O)OCC1CCC(n2cnc3c(=O)[nH]cnc32)O1` (stereo not shown) [2′,3′-dideoxy-5′-hydrogen hexadecanedioate inosine], for which the “% Albumin binding” value is recorded as 100%. Regarding `O=C(O)CCCCC(=O)OCC1CCC(n2cnc3c(=O)[nH]cnc32)O1` (stereo not shown) [2′,3′-dideoxy-5′-hydrogen hexanedioate inosine], the “% Albumin binding” value came out at 10%. On to `O=C(O)CCCCCCC(=O)OCC1CCC(n2cnc3c(=O)[nH]cnc32)O1` (stereo not shown) [2′,3′-dideoxy-5′-hydrogen octanedioate inosine], for which the “% Albumin binding” value was 40%.
